Measured values taken from patent US9155751B2, “Solution for tissue adhesion prevention and method for tissue adhesion prevention” (THE UNIVERSITY OF TOKYO, priority 2005, dated 2015).
Where “and” joins values, the source holds several entries; their conditions need not be identical. Equal entries are not always repeated. Entries after “also recorded” stand apart in the source; their conditions may differ.

Legend:
[1] = tested on: HepG2 cells; assay: HepG2 cell survival after air-dry (neutral red absorbance); assay type: cell-based, human; details: for cell survival rate: activated with sample solution 37 degrees C 1 hour, air-dry 3 minutes, control plate without air-dry = 100%; for cell survival rate in control plates (effect of each reagent on cells): air-dry not performed, control plate for PBS (+) = 100%; for cell protection effect: plates air-dried for 3 minutes
Experimental: As cells, HepG2 cells (human hepatoma-derived cell lines) were used.
For all reagents other than HepG2 cells, AA-2G, trehalose, DMEM media, FCS, neutral red, reagent grade chemicals were used. In addition, as sample solution in which HepG2 cells were activated, 4 kinds of solution; PBS (+) solution, 2.5 mM AA-2G solution, 132 mM trehalose solution, 2.5 mM AA-2G+132 mM trehalose mixed solution were prepared.
A reagent ascorbic acid-2-glucoside (AA2G; Hayashihara Biochemical Labs., Inc.) was dissolved in distilled water to obtain 2.5 mM AA-2G solution. And a highly purified hydrated crystal trehalose in powder (Reagent trehalose; Hayashihara Biochemical Labs., Inc.) was dissolved in distilled water to obtain 132 mM trehalose solution. The reagents ascorbic acid-2-glucoside and the highly purified hydrated crystal trehalose in powder were dissolved in distilled water to obtain 2.5 mM AA-2G+132 mM trehalose mixed solution. Then, pH and osmolarity of these 4 kinds of sample solutions were adjusted. Adjustment of osmolarity of 2.5 mM AA-2G solution, 132 mM trehalose solution, 2.5 mM AA-2G+132 mM trehalose mixed solution was performed by adjusting with sodium chloride of PBS (+) to be isotonic.
The pH and osmolarity of each sample after adjustment were as follows; pH 7.2 and 279 mOsm for PBS (+) solution, pH 6.8 and 265 mOsm for 2.5 mM AA-2G solution, pH 7.2 and 283 mOsm for 132 mM trehalose solution and pH 7.0 and 282 mOsm for 2.5 mM AA-2G+132 mM trehalose mixed solution.
Then, HepG2 cells were seeded with 4×10^4 cells/well each to four 12-well plates, and incubated in DMEM media (Nissui Pharmaceutical Co., Ltd) containing 10% FCS (Gibco) for 4 days. Then the DMEM media containing 10% FCS were replaced with 4 kinds of sample solutions; PBS (+) solution, 2.5 mM AA-2G solution, 132 mM trehalose solution, 2.5 mM AA-2G+132 mM trehalose mixed solution, and activated at 37 degrees C. for 1 hour.
Two control plates and two test plates were prepared for cells activated with 4 kinds of sample solutions, respectively. For each two test plates, one plate was air-dried for 5 minutes and other plate was air-dried for 3 minutes. The two control plates were not air-dried.
Then, cells of each plate was replaced with no serum DMEM media and incubated at 37 degrees C. for 1 hour. After replacing with 0.02% neutral red (Wako Pure Chemical Industries, Ltd, hereinafter referred to NR), they were activated at 37 degrees C. for 40 minutes. After removal of NR solution and addition of PBS (+), they were left to stand at 37 degrees C. for 40 minutes, PBS (+) was removed and they were air-dried for 5 minutes. They were added NR extracts and left to stand at 37 degrees C. for 10 minutes, then each sample was distributed over 96-well plate and the absorbance at the wavelength of 570 nm was measured.
The absorbance of the control plates to which air-dry was not performed was considered as cell survival rate of 100%, and the cell survival rate of the test plates to which air-dry was performed for 3 minutes was calculated. The results are shown in the graph indicating changes in cell survival rate by air-dry in FIG. 1.
Also, the cell survival rates of control plates for each sample solution to which air-dry was not performed were calculated. The results are shown in the graph indicating the effect of each reagent on cells in FIG. 2.

[2] = tested on: abdominal adhesion model using rabbits; assay: Rabbit abdominal adhesion model by desiccating intestine surface during abdominal surgery (Example 2); assay type: in vivo, New Zealand White rabbits; details: for Clinical findings: 2% trehalose solution sprayed on whole intestines several times during laparotomy
Experimental: In this example, abdominal adhesion model was prepared using rabbits by desiccating surface of intestines during abdominal surgery, and the preventive effect of intestine adhesion by trehalose was discussed.
As trehalose, powder trehalose (Reagent trehalose; Hayashihara Biochemical Labs., Inc.) and ^+NaCl were dissolved in sterile distilled water of 250 mL as 2%; solution, sterilized by filtration with filter (Millex; Millpore Co., Bedford) and poured to sterile container and stored at room temperature. As test animals, five female New Zealand White rabbits weighing 2.85 to 3.2 kg aged of 14 weeks (Std:NZW, Japan SLC, Inc., Shizuoka) were used. The rabbits were kept in animal laboratory (room temperature of 24+/−1 degrees C., humidity of 30 to […]) in The University of Tokyo, Graduate School of Agricultural and Life Sciences Veterinary Medical Center. The rabbits were acclimatized for 1 week after purchase, and during this period blood test (complete blood count, BUN, Cre, ALT, ALP) and general x-ray test were performed to confirm that abnormality was not present. The experiment of this example was performed according to the Manual of animal experiment of University of Tokyo.
(§1) The experiment of this example was performed as follows.
(§2) As anesthesia, 5 mg/kg of ketamine (KETALAL 50; Sankyo Lifetech Co., Ltd., Tokyo) and 0.1 mg/kg of medetomidine (DOMITOL; Meiji Seiyaku Co., Ltd., Tokyo) were intramuscularly injected as preoperative medication, and after intubation maintained with isoflurane (ISOFLU; Dainippon Pharmaceutical Co., Ltd., Osaka). Before operation, 10 mg/kg of enrofloxacin (BAYTRIL; Bayer Medical Ltd., Tokyo) was subcutaneously administered as antibiotics, and during operation 10 mL/kg/hr of lactated Ringer's solution (FUSO; Fuso Pharmaceutical Industries, Ltd., Osaka) was intravenously administered, After operation, single dose of 20 μg/kg of buprenorphine (LEPETAN; Otsuka Pharmaceutical Co., Ltd., Tokyo) as analgesics was subcutaneously administered. During anesthesia, ECG, ETCO2 and SpO2 were monitored and maintained within their normal variations.
Three rabbits among the five rabbits were randomized to the control group, and the other two rabbits were classified into the trehalose group. For the five rabbits, after disinfection of operative field, abdominal median incision was performed and intestines were exposed as far as possible and serum was wiped with gauze. For control group (three rabbits) they were left desiccated and for trehalose group (two rabbits) whole intestines were sprayed with trehalose for several times. During this period, ovariohysterectomy was performed according to given method. The time period of laparotomy was 30 to 60 minutes for both groups. The 3-0 monofilament nylon fiber (Bear surgical suture; Bear Medic Corporation, Chiba) was used for ovariohysterectomy and closure of abdominal wall, and the 4-0 monofilament polyglyconate fiber (MAXON; Syneture Co., Ltd., Connecticut) was used for subcutaneous tissues and stapler (Manipler AZ-35W; Mani Inc., Tochigi) was used for skin suture. After operation, general condition and wounds were observed and they were killed by overdose of pentobarbital after 2 weeks. The adhesion status in peritoneal cavity was macroscopically observed and recorded as well as tissues of adhesion sites were removed as pathohistological test material and fixed in formalin.
The clinical findings after 2 weeks and the macroscopic findings of adhesion status after laparotomy of each case are shown in Table 1.

[3] = tested on: abdominal adhesion model using rabbits; assay: Rabbit abdominal adhesion model by desiccating intestine surface during abdominal surgery (Example 3); assay type: in vivo, New Zealand White rabbits; design: key to Adhesion sites: greater omentum - rectum / Adhesion sites: greater omentum - stomach / Adhesion sites: greater omentum - small intestine / Adhesion sites: small intestine - rectum / Adhesion sites: abdominal wall - bladder / Adhesion sites: abdominal wall - fat / Adhesion sites: colon-fat / Adhesion sites: jejunum - abdominal wall / Adhesion sites: cecum - colon: non-adhesion: −; Adhesions of mild degree (abruption enabled): +; Adhesions of severe degree (abruption enabled): ++; Score-Total: scale not given here
Experimental: In this example, abdominal adhesion model was prepared using rabbits by desiccating surface of intestines during abdominal surgery, and the preventive effect on intestine adhesion by trehalose was discussed.
As trehalose, powder trehalose (Reagent trehalose; Hayashihara Biochemical Labs., Inc.) were dissolved in sterile distilled water of 250 mL as 7% solution, sterilized by filtration with filter (Millex; Millpore Co., Bed ford) and poured to sterile container and stored at room temperature.
As test animals, 20 female New Zealand White rabbits weighing 2.6 to 3.2 kg aged of 14 weeks (Std:NZW, Japan SLC, Inc., Shizuoka) were used. The rabbits were kept in animal laboratory (room temperature of 24+/−1 degrees C., humidity of 30 to 70%) in The University of Tokyo, Graduate School of Agricultural and Life Sciences Veterinary Medical Center. The rabbits were acclimatized for 1 week after purchase, and during this period blood test (complete blood count, BUN, Cre, ALT, ALP) and general x-ray test were performed to confirm that abnormality was not present. The experiment of this example was performed according to the Manual of animal experiment of The University of Tokyo.
as §1
as §2, with “Seiyaku Ca,” for “Seiyaku Co.,”, “isoflurane (SOFLU” for “isoflurane (ISOFLU;”, “intravenously administered.” for “intravenously administered,”, “administered.” for “administered. During anesthesia, ECG, ETCO2 and SpO2 were monitored and maintained within their normal variations.”
During anesthesia, ECG, ETCO2 and SpO2 were monitored and maintained within their normal variations.
For the 20 rabbits, after disinfection of operative field, abdominal median incision was performed and intestines were exposed as far as possible and serum was wiped with gauze. Total ovariohysterectomy performed according to given method. Four section of ovarion arteries and veins were severed after being ligated with 4-0 mono filament polyglyconate suture (MAXON; Syneture Co., Ltd., Connecticut). Also, uterovaginal stump were sutured with 5-0 mono filament polyglyconate suture (MAXON; Syneture Co., Ltd., Connecticut), the 3-0 mono filament polyglyconate suture (MAXON; Syneture CO., Ltd., Connecticut) was used for closure of abdominal wall, and the 4-0 mono filament polyglyconate suture (MAXON; Syneture Co., Ltd., Connecticut) was used for subcutaneous tissues and stapler (ManiplerAZ-35W; Mani Inc., Tochigi) was used for skin suture.
Ten rabbits among the twenty rabbits were randomized to the control group, and the other ten rabbits were classified into the trehalose group.
The control group (10 rabbits) was left desiccated. The time period of laparotomy was 60 minutes.
For the trehalose group, trehalose solution was sprayed over the whole abdominal cavities every 15 minutes (0 minutes, 15 minutes, 30 minutes, 45 minutes, 60 minutes after starting the operation). The time period of laparotomy was 60 minutes. After operation, general condition and wounds were observed and rabbits were euthanized by excessive administration of pentobarbital two weeks after the operations.
The adhesion status in peritoneal cavity was macroscopically observed and recorded as well as tissues of adhesion sites were removed as pathohistological test materials and fixed in formalin. The clinical findings after 2 weeks and the macroscopic findings of adhesion status after laparotomy of each case are shown in Table 2.

[4] = 2% trehalose solution sprayed on whole intestines, macroscopic, 2 weeks after operation, individual rabbits
[5] = 7% trehalose solution sprayed every 15 minutes, 60 min laparotomy, 2 weeks after, individual rabbits No. 1-10

O=C1O[C@H]([C@@H](O)CO)C(O)=C1O[C@H]1O[C@H](CO)[C@@H](O)[C@H](O)[C@H]1O [2.5 mM AA-2G solution, ascorbic acid-2-glucoside]
cell survival rate [1]: 61.8%
cell survival rate in control plates (effect of each reagent on cells) [1]: 101.6% and 101.5%
cell protection effect [1]: the cell protection effect was not observed

OC[C@H]1O[C@H](O[C@H]2O[C@H](CO)[C@@H](O)[C@H](O)[C@H]2O)[C@H](O)[C@@H](O)[C@@H]1O [Trehalose, trehalose]
cell survival rate [1]: 70.7%
cell survival rate in control plates (effect of each reagent on cells) ([1]; listed as 132 mM trehalose solution): 97.6% and 97.7%
cell protection effect [1]: the cell protection effect was observed
Clinical findings ([2]; 2 weeks after operation, individual rabbits): Partial dehiscence; also recorded: No abnormal findings
Clinical findings ([2]; 2 weeks after operation, individual rabbits, listed as trehalose): a part of skin suture site was removed and showed ulcer in 1 case
Findings after laparotomy: Adhesion of stump of uterus [2, 4]: Present
Findings after laparotomy: Adhesion sites in intestines [2, 4]: 2 sites of adhesion and No significant
Findings after laparotomy: Adhesion sites in intestines ([2]; 2% trehalose solution sprayed on whole intestines, macroscopic, 2 weeks after operation, individual rabbits, listed as trehalose): 2 sites of mild adhesion were suspected in 1 rabbit and no significant adhesion was macroscopically observed
prevention of abdominal adhesion due to desiccation (conclusion) ([2]; spray of 2% trehalose solution): would be effective for prevention of abdominal adhesion due to desiccation
cases with adhesions of mild and severe degree between abdominal organs ([3]; 7% trehalose solution spray, 10 rabbits, control 6 of 10): 2 of 10
adhesion scores between organs (group) ([3]; 7% trehalose solution spray, 10 rabbits, control group +16): +3
Adhesion sites: abdominal wall - bladder [3, 5]: −
Adhesion sites: abdominal wall - fat [3, 5]: −
Adhesion sites: cecum - colon [3, 5]: + and − (9×)
Adhesion sites: colon-fat [3, 5]: −
Adhesion sites: greater omentum - rectum [3, 5]: −
Adhesion sites: greater omentum - small intestine [3, 5]: −
Adhesion sites: greater omentum - stomach [3, 5]: −
Adhesion sites: jejunum - abdominal wall [3, 5]: −
Adhesion sites: small intestine - rectum [3, 5]: − (9×) and ++
Score-Total ([3]; adhesion score per rabbit, 7% trehalose solution spray, individual rabbits No. 1-10): 1 and 0 (8×) and 2
prevention of abdominal adhesion due to desiccation (conclusion) ([3]; spray of 7% trehalose solution): can obviously prevent and reduce adhesions
prevention ratio ([3]; trehalose group versus control group adhesion score, Wilcoxon rank-sum test p<0.05): 81%
